Measurements reported in ChEMBL document CHEMBL1201862, “PubChem BioAssay data set” (2004).
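Grown in 96-well plates, cells were treated for 48 hours with each compound at five concentrations. Insufficient inhibition: endpoint recorded as highest concentration tested. The concentration for 50% growth inhibition is given as GI50.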 Calls of active or inactive are those of the source. Rule as the data show it: active = GI50 up to about 1.1 µM and inactive = higher.

What was measured:
Experiment in all cases: inhibition of tumour cell growth, NCI panel, 48 h
U-251 = system: U-251
DU-145 = system: DU-145
HCT-116 = system: HCT-116
KM12 = system: KM12
Hs-578T = system: Hs-578T
COLO 205 = system: COLO 205
M14 = system: M14
NCI-H23 = system: NCI-H23
A498 = system: A498
ACHN = system: ACHN
MDA-N = system: MDA-N
SK-MEL-2 = system: SK-MEL-2
SK-MEL-5 = system: SK-MEL-5
T47D = system: T47D
OVCAR-3 = system: OVCAR-3
MOLT-4 = system: MOLT-4
RXF 393 = system: RXF 393
SK-MEL-28 = system: SK-MEL-28
BT-549 = system: BT-549
NCI/ADR-RES = system: NCI/ADR-RES
MDA-MB-435 = system: MDA-MB-435
UACC-257 = system: UACC-257
HT-29 = system: HT-29
NCI-H522 = system: NCI-H522
CAKI-1 = system: CAKI-1
A549 = system: A549
MDA-MB-231 = system: MDA-MB-231
HL-60 = system: HL-60
PC-3 = system: PC-3
HCT-15 = system: HCT-15
SN12C = system: SN12C
HOP-62 = system: HOP-62
MCF7 = system: MCF7
CCRF-CEM = system: CCRF-CEM
786-0 = system: 786-0
UO-31 = system: UO-31
SF-295 = system: SF-295
EKVX = system: EKVX
RPMI-8226 = system: RPMI-8226
SR = system: SR
K562 = system: K562
TK-10 = system: TK-10
Malme-3M = system: Malme-3M
SF-539 = system: SF-539
OVCAR-4 = system: OVCAR-4
IGROV-1 = system: IGROV-1
LOX IMVI = system: LOX IMVI
SF-268 = system: SF-268
HOP-92 = system: HOP-92
SW-620 = system: SW-620
UACC-62 = system: UACC-62
SNB-19 = system: SNB-19
NCI-H226 = system: NCI-H226
SK-OV-3 = system: SK-OV-3
NCI-H460 = system: NCI-H460
OVCAR-5 = system: OVCAR-5
OVCAR-8 = system: OVCAR-8
HCC 2998 = system: HCC 2998
SNB-75 = system: SNB-75

## COc1cc(-c2ccccc2N)c2cccnc2c1OC
U-251
  GI50: 4.21 µM (inactive)
DU-145
  GI50: 2.89 µM (inactive)
HCT-116
  GI50: 1.36 µM (inactive)
KM12
  GI50: 6.07 µM (inactive)
Hs-578T
  GI50: 3.05 µM (inactive)
COLO 205
  GI50: 6.38 µM (inactive)
M14
  GI50: 6.28 µM (inactive)
NCI-H23
  GI50: 4.94 µM (inactive)
A498
  GI50: 14.1 µM (inactive)
ACHN
  GI50: 3.71 µM (inactive)
MDA-N
  GI50: 6.47 µM (inactive)
SK-MEL-2
  GI50: 12.9 µM (inactive)
SK-MEL-5
  GI50: 13 µM (inactive)
T47D
  GI50: 4.04 µM (inactive)
OVCAR-3
  GI50: 4.38 µM (inactive)
MOLT-4
  GI50: 1.44 µM (inactive)
RXF 393
  GI50: 15.2 µM (inactive)
SK-MEL-28
  GI50: 17.9 µM (inactive)
BT-549
  GI50: 9.14 µM (inactive)
NCI/ADR-RES
  GI50: 10.4 µM (inactive)
MDA-MB-435
  GI50: 8.17 µM (inactive)
UACC-257
  GI50: 10.1 µM (inactive)
HT-29
  GI50: 0.74 µM (active)
NCI-H522
  GI50: 3.59 µM (inactive)
CAKI-1
  GI50: 2.63 µM (inactive)
A549
  GI50: 3.69 µM (inactive)
MDA-MB-231
  GI50: 6.22 µM (inactive)
HL-60
  GI50: 3.98 µM (inactive)
PC-3
  GI50: 8.55 µM (inactive)
HCT-15
  GI50: 3.58 µM
SN12C
  GI50: 3.93 µM (inactive)
HOP-62
  GI50: 5.26 µM (inactive)
MCF7
  GI50: 3.84 µM (inactive)
CCRF-CEM
  GI50: 3.56 µM (inactive)
786-0
  GI50: 2.83 µM (inactive)
UO-31
  GI50: 3.8 µM (inactive)
SF-295
  GI50: 1.54 µM (inactive)
EKVX
  GI50: 5.06 µM (inactive)
RPMI-8226
  GI50: 3.4 µM (inactive)
SR
  GI50: 1.67 µM (inactive)
K562
  GI50: 4.78 µM (inactive)
TK-10
  GI50: 10.1 µM (inactive)
Malme-3M
  GI50: 14.9 µM (inactive)
SF-539
  GI50: 6.41 µM (inactive)
OVCAR-4
  GI50: 6.3 µM (inactive)
IGROV-1
  GI50: 2.97 µM (inactive)
LOX IMVI
  GI50: 3.4 µM (inactive)
SF-268
  GI50: 3.1 µM (inactive)
HOP-92
  GI50: 9.53 µM (inactive)
SW-620
  GI50: 2.92 µM (inactive)
UACC-62
  GI50: 11.7 µM (inactive)
SNB-19
  GI50: 4.75 µM (inactive)
NCI-H226
  GI50: 11.6 µM (inactive)
SK-OV-3
  GI50: 9.57 µM (inactive)
NCI-H460
  GI50: 11.1 µM (inactive)

## N#CC1(C#N)C(c2ccccc2)C=CC(c2ccc([N+](=O)[O-])cc2)C1(C#N)C#N (stereo unspecified)
U-251
  GI50: 20.4 µM (inactive)
DU-145
  GI50: 14.2 µM (inactive)
HCT-116
  GI50: 3.8 µM (inactive)
KM12
  GI50: 22.1 µM (inactive)
Hs-578T
  GI50: 17.9 µM (inactive)
COLO 205
  GI50: 1.57 µM (inactive)
M14
  GI50: 4.59 µM (inactive)
NCI-H23
  GI50: 12.4 µM (inactive)
A498
  GI50: 16.6 µM (inactive)
ACHN
  GI50: 3.43 µM (inactive)
MDA-N
  GI50: 6.22 µM (inactive)
SK-MEL-2
  GI50: 17.1 µM (inactive)
SK-MEL-5
  GI50: 10.7 µM (inactive)
T47D
  GI50: 2.61 µM (inactive)
OVCAR-3
  GI50: 9.98 µM (inactive)
MOLT-4
  GI50: 2.3 µM (inactive)
SK-MEL-28
  GI50: 15.8 µM (inactive)
BT-549
  GI50: 10.4 µM (inactive)
NCI/ADR-RES
  GI50: 8.38 µM (inactive)
MDA-MB-435
  GI50: 3.37 µM (inactive)
OVCAR-5
  GI50: 17.1 µM (inactive)
OVCAR-8
  GI50: 11.2 µM (inactive)
UACC-257
  GI50: 16.3 µM (inactive)
HT-29
  GI50: 3.61 µM (inactive)
NCI-H522
  GI50: 3.21 µM (inactive)
CAKI-1
  GI50: 3.66 µM (inactive)
A549
  GI50: 17.7 µM (inactive)
MDA-MB-231
  GI50: 13.4 µM (inactive)
HL-60
  GI50: 0.223 µM (active)
PC-3
  GI50: 12.2 µM (inactive)
HCT-15
  GI50: 3.69 µM
SN12C
  GI50: 4.83 µM (inactive)
HOP-62
  GI50: 17.3 µM (inactive)
MCF7
  GI50: 5.98 µM (inactive)
CCRF-CEM
  GI50: 0.278 µM (active)
786-0
  GI50: 2.67 µM (inactive)
UO-31
  GI50: 13.7 µM (inactive)
SF-295
  GI50: 18.5 µM (inactive)
HCC 2998
  GI50: 19.4 µM (inactive)
EKVX
  GI50: 14.8 µM (inactive)
RPMI-8226
  GI50: 2.91 µM (inactive)
SR
  GI50: 2.53 µM (inactive)
K562
  GI50: 3.01 µM (inactive)
TK-10
  GI50: 3.65 µM (inactive)
SF-539
  GI50: 2.81 µM (inactive)
OVCAR-4
  GI50: 16.5 µM (inactive)
IGROV-1
  GI50: 14 µM (inactive)
LOX IMVI
  GI50: 2.35 µM (inactive)
SF-268
  GI50: 17.5 µM (inactive)
HOP-92
  GI50: 3.43 µM (inactive)
SW-620
  GI50: 3.66 µM (inactive)
UACC-62
  GI50: 12 µM (inactive)
SNB-19
  GI50: 15.1 µM (inactive)
NCI-H226
  GI50: 17.3 µM (inactive)
SNB-75
  GI50: 24.7 µM (inactive)
SK-OV-3
  GI50: 18.5 µM (inactive)
NCI-H460
  GI50: 30.3 µM (inactive)

## NC(Cc1ccccc1CP(=O)(O)O)C(=O)O (stereo unspecified)
U-251
  GI50: > 100 µM (inactive)
DU-145
  GI50: > 100 µM (inactive)
HCT-116
  GI50: > 100 µM (inactive)
KM12
  GI50: > 100 µM (inactive)
Hs-578T
  GI50: > 100 µM (inactive)
COLO 205
  GI50: > 100 µM (inactive)
M14
  GI50: > 100 µM (inactive)
NCI-H23
  GI50: > 100 µM (inactive)
ACHN
  GI50: > 100 µM (inactive)
MDA-N
  GI50: > 100 µM (inactive)
SK-MEL-2
  GI50: > 100 µM (inactive)
SK-MEL-5
  GI50: > 100 µM (inactive)
T47D
  GI50: 35.9 µM (inactive)
OVCAR-3
  GI50: > 100 µM (inactive)
MOLT-4
  GI50: > 100 µM (inactive)
RXF 393
  GI50: > 100 µM (inactive)
SK-MEL-28
  GI50: > 100 µM (inactive)
BT-549
  GI50: > 100 µM (inactive)
NCI/ADR-RES
  GI50: > 100 µM (inactive)
MDA-MB-435
  GI50: > 100 µM (inactive)
OVCAR-5
  GI50: > 100 µM (inactive)
OVCAR-8
  GI50: > 100 µM (inactive)
UACC-257
  GI50: > 100 µM (inactive)
HT-29
  GI50: > 100 µM (inactive)
NCI-H522
  GI50: > 100 µM (inactive)
CAKI-1
  GI50: > 100 µM (inactive)
A549
  GI50: > 100 µM (inactive)
MDA-MB-231
  GI50: > 100 µM (inactive)
HL-60
  GI50: > 100 µM (inactive)
PC-3
  GI50: > 100 µM (inactive)
HCT-15
  GI50: > 100 µM
SN12C
  GI50: > 100 µM (inactive)
MCF7
  GI50: > 100 µM (inactive)
CCRF-CEM
  GI50: > 100 µM (inactive)
UO-31
  GI50: > 100 µM (inactive)
SF-295
  GI50: > 100 µM (inactive)
HCC 2998
  GI50: > 100 µM (inactive)
EKVX
  GI50: > 100 µM (inactive)
RPMI-8226
  GI50: > 100 µM (inactive)
SR
  GI50: > 100 µM (inactive)
K562
  GI50: > 100 µM (inactive)
TK-10
  GI50: > 100 µM (inactive)
SF-539
  GI50: > 100 µM (inactive)
OVCAR-4
  GI50: > 100 µM (inactive)
IGROV-1
  GI50: > 100 µM (inactive)
LOX IMVI
  GI50: > 100 µM (inactive)
SF-268
  GI50: > 100 µM (inactive)
HOP-92
  GI50: > 100 µM (inactive)
SW-620
  GI50: > 100 µM (inactive)
UACC-62
  GI50: 53 µM (inactive)
SNB-19
  GI50: > 100 µM (inactive)
SNB-75
  GI50: > 100 µM (inactive)
SK-OV-3
  GI50: > 100 µM (inactive)
NCI-H460
  GI50: > 100 µM (inactive)
